We go through 21 molecules from US20250195530A1, “POLQ INHIBITORS” (ASTRAZENECA AB, priority 2022, published 2025).

SMILES strings stand for the structures.

In one experiment the test system is DLD-1 BRCA2−/− cells. Briefly: Homologous recombination synthetic lethal inhibition of proliferation, DLD-1 BRCA2-/- (Cell Titre Glo 3D). The format is cell-based. The conditions noted are these: DLD-1 BRCA2-/- proliferation; column head only partly shown. The source says:
This assay identifies anti-proliferative effects of POLQ compounds in the homologous recombination deficient colorectal cell line DLD-1 BRCA2−/− over 8-9 population doublings (7 days for DLD-1 and 12 days for DLD-1 BRCA2−/−). DLD1 BRCA2 wt are used as a control to detect cell toxic effects not specific to homologous recombination deficiency.
DLD-1 BRCA2−/− and DLD-1 cells were kept in continuous culture in Assay Medium (RPMI 1640 phenol red free (Sigma R7509) containing 1% GlutaMAX (Gibco 35050) and 10% Foetal Bovine Serum (Gibco 10270-106)). On the day of the assay cells in culture of ˜80-90% confluent were used. Cell monolayers were washed with 10 mL PBS, then removed and added 2 mL TrypLE Express (Gibco 12604). The cells with TrypLE Express were incubated for 5 minutes in cell culture incubator and then the detached cells resuspend in 15 mL Assay Medium. Cells were counted using a ViCell and the cell images were monitored for clumps of cells, ideally they should be single or <3 cell clusters. The cells were diluted to 3,000 cells/mL of DLD-1 BRCA2−/− and 1,500 cells/mL of DLD-1 in Assay Medium and 100 μL added per well of transparent bottomed, black, tissue culture-treated 96-well plates (CoStar, No. 3904) Assay Ready Plates. The Assay Ready Plates contain a 10 point 10 μM to 0.51 nM dose range with three-fold dilutions in DMSO with a final volume of 100 nL. The plates were incubated at 37° C. with 5% C02 for 6 days. On day 6, 100 μL/well of Assay Medium was added to duplicate Assay Ready Plates. 90 μL of culture medium was removed from the cell plates and replenished with the Assay Media and compounds from the duplicate Assay Ready Plates using the Bravo. The plates were further incubated at 37° C. with 5% CO2. On day 7 the plates containing DLD-1 and Cell Titre Glo 3D (Promega G9683) were equilibrated to room temperature, then 60 μL of Cell Titre Glo 3D was added per well and incubated on a shaking platform for 30 min. Plates were read on the Envision measuring luminescence for 1 second per well. On day 12 the plates containing DLD-1 BRCA2−/− cells and Cell Titre Glo 3D (Promega G9683) were equilibrated to room temperature, then 60 μL Cell Titre Glo 3D added per well and incubated on a shaking platform for 30 min. Plates were read on the Envision measuring luminescence for 1 second per well. The data was exported into a suitable software package (such as Genedata) to perform curve fitting analysis. Inhibition of cell proliferation was expressed as an IC5o value and was determined by calculation of the concentration of compound that was required to give a 50% reduction of the average maximum Total Intensity signal.
As for `CC(CCOc1ccc(-c2nc3c(OC4(C)CC4)ncnc3n2Cc2cccc(F)c2F)c(Cl)c1)C(=O)O` (single isomer, unassigned) [Example T262, 4-(3-chloro-4-(9-(2,3-difluorobenzyl)-6-(1-methylcyclopropoxy)-9H-purin-8-yl)phenoxy)-2-methylbutanoic acid], the “POLQ PD Prolif Lumin” value is given as 6.3.

Turning to `CC(CCOc1ccc(-c2nc3c(OC4(C)CC4)ncnc3n2Cc2cccc(Cl)c2F)c(Cl)c1)C(=O)O` (single isomer, unassigned) [Example T271, 4-(3-chloro-4-(9-(3-chloro-2-fluorobenzyl)-6-(1-methylcyclopropoxy)-9H-purin-8-yl)phenoxy)-2-methylbutanoic acid], the “POLQ PD Prolif Lumin” value was 6.4.

The same experiment, now with this note: Homo sapiens, DLD-1, 288 h, DLD-1 BRCA2−/− cells, 12 days; read-out: POLQ PD Prolif Lumin BRCA2 −/− mean pIC50 (converted).
Turning to `CC(Cc1ccccn1)n1c(-c2ccc(OCCN3CCNCC3)cc2Cl)nc2c(OC3(C)CC3)ncnc21` (single isomer, unassigned) [Example S7, 8-(2-chloro-4-(2-(piperazin-1-yl)ethoxy)phenyl)-6-(1-methylcyclopropoxy)-9-(1-(pyridin-2-yl)propan-2-yl)-9H-purine], the IC50 is 6310 nM.

Still in this experiment, the particulars now being: Homo sapiens, DLD-1, DLD-1 BRCA2-/- proliferation; column head only partly shown; read-out: POLQ PD Prolif Lumin (converted).
Turning to `CC(CCOc1ccc(-c2nc3c(OC4(C)CC4)ncnc3n2Cc2cccc(F)c2F)c(Cl)c1)C(=O)O` (single isomer, unassigned) [Example T261, 4-(3-chloro-4-(9-(2,3-difluorobenzyl)-6-(1-methylcyclopropoxy)-9H-purin-8-yl)phenoxy)-2-methylbutanoic acid], the IC50 is 631 nM.

In the case of `CC(CCOc1ccc(-c2nc3c(OC4(C)CC4)ncnc3n2Cc2c(F)cccc2F)c(Cl)c1)C(=O)O` (single isomer, unassigned) [Example T263, 4-(3-chloro-4-(9-(2,6-difluorobenzyl)-6-(1-methylcyclopropoxy)-9H-purin-8-yl)phenoxy)-2-methylbutanoic acid], the IC50 was 794 nM.

`CC(CCOc1ccc(-c2nc3c(OC4(C)CC4)ncnc3n2Cc2cccc(Cl)c2F)c(Cl)c1)C(=O)O` (single isomer, unassigned) [Example T270, 4-(3-chloro-4-(9-(3-chloro-2-fluorobenzyl)-6-(1-methylcyclopropoxy)-9H-purin-8-yl)phenoxy)-2-methylbutanoic acid]: the IC50 was 501 nM.

The same experiment, now with this note: Homo sapiens, DLD-1, DLD-1 BRCA2 −/−, mean; read-out: POLQ PD Prolif Lumin BRCA2 −/− mean pIC50 (converted).
Consider `CC(COc1ccc(-c2nc3c(OC4(C)CC4)ncnc3n2Cc2ccccc2C#N)c(Cl)c1)CC(=O)O` (racemic) [Example U25, 4-(3-chloro-4-(9-(2-cyanobenzyl)-6-(1-methylcyclopropoxy)-9H-purin-8-yl)phenoxy)-3-methylbutanoic acid], for which the IC50 was 398 nM.

For the molecule `CC(CCOc1ccc(-c2nc3c(OC4(C)CC4)ncnc3n2Cc2cc(C(F)(F)F)cc(Cl)c2F)c(Cl)c1)C(=O)O` (racemic) [Example U35, 4-(3-chloro-4-(9-(3-chloro-2-fluoro-5-(trifluoromethyl)benzyl)-6-(1-methylcyclopropoxy)-9H-purin-8-yl)phenoxy)-2-methylbutanoic acid], the IC50 is 158 nM.

As for `Cc1ccc(Cl)cc1Cn1c(-c2ccc(OCCC(C)C(=O)O)cc2Cl)nc2c(OC3(C)CC3)ncnc21` (racemic) [Example U36, 4-(3-chloro-4-(9-(5-chloro-2-methylbenzyl)-6-(1-methylcyclopropoxy)-9H-purin-8-yl)phenoxy)-2-methylbutanoic acid], the IC50 is 316 nM.

Take `CC(CCOc1ccc(-c2nc3c(OC4(C)CC4)ncnc3n2Cc2cccc(Cl)c2C#N)c(Cl)c1)C(=O)O` (racemic) [Example U37, 4-(3-chloro-4-(9-(3-chloro-2-cyanobenzyl)-6-(1-methylcyclopropoxy)-9H-purin-8-yl)phenoxy)-2-methylbutanoic acid]: the IC50 is 2000 nM.

Turning to `CC(COc1ccc(-c2nc3c(OC4(C)CC4)ncnc3n2Cc2cc(Cl)ccc2F)c(Cl)c1)CC(=O)O` (racemic) [Example U45, 4-(3-chloro-4-(9-(5-chloro-2-fluorobenzyl)-6-(1-methylcyclopropoxy)-9H-purin-8-yl)phenoxy)-3-methylbutanoic acid], the IC50 was 79.4 nM.

As to `COc1ncc(Cl)cc1Cn1c(-c2ccc(OCCC(C)C(=O)O)cc2Cl)nc2c(OC3(C)CC3)ncnc21` (racemic) [Example U53, 4-(3-chloro-4-(9-((5-chloro-2-methoxypyridin-3-yl)methyl)-6-(1-methylcyclopropoxy)-9H-purin-8-yl)phenoxy)-2-methylbutanoic acid], the IC50 is 316 nM.

For `CCOc1ccc(Cl)cc1Cn1c(-c2ccc(OCCC(C)C(=O)O)cc2Cl)nc2c(OC3(C)CC3)ncnc21` (racemic) [Example U59, 4-(3-chloro-4-(9-(5-chloro-2-ethoxybenzyl)-6-(1-methylcyclopropoxy)-9H-purin-8-yl)phenoxy)-2-methylbutanoic acid], the IC50 is 63.1 nM.

On to `CC(CCOc1ccc(-c2nc3c(OC4(C)CC4)ncnc3n2Cc2cc(Cl)ccc2OC(F)F)c(Cl)c1)C(=O)O` (racemic) [Example U60, 4-(3-chloro-4-(9-(5-chloro-2-(difluoromethoxy)benzyl)-6-(1-methylcyclopropoxy)-9H-purin-8-yl)phenoxy)-2-methylbutanoic acid], for which the IC50 is 126 nM.

Take `COc1c(F)cc(Cl)cc1Cn1c(-c2ccc(OCCC(C)C(=O)O)cc2Cl)nc2c(OC3(C)CC3)ncnc21` (racemic) [Example U61, 4-(3-chloro-4-(9-(5-chloro-3-fluoro-2-methoxybenzyl)-6-(1-methylcyclopropoxy)-9H-purin-8-yl)phenoxy)-2-methylbutanoic acid]: the IC50 is 158 nM.

Still in this experiment, the particulars now being: Homo sapiens, DLD-1, first proliferation column (c5), taken as DLD-1 BRCA2-/-; read-out: POLQ PD Prolif Lumin (converted).
In the case of `Cc1ccnc(Cn2c(-c3ccc(O[C@@H]4CC[C@@H](O)C4)cc3Cl)nc3c(OC4(C)CC4)ncnc32)c1` (relative stereo) [Example T330, rel-(1R,3R)-3-(3-chloro-4-(6-(1-methylcyclopropoxy)-9-((4-methylpyridin-2-yl)methyl)-9H-purin-8-yl)phenoxy)cyclopentan-1-ol], the IC50 is 200 nM.

Still in this experiment, the particulars now being: Homo sapiens, DLD-1, first proliferation column (c5); DLD-1 BRCA2-/-; read-out: POLQ PD Prolif Lumin (converted).
Turning to `Cc1ccnc(Cn2c(-c3ccc(OCC(F)CO)cc3Cl)nc3c(OC4(C)CC4)ncnc32)c1` (single isomer, unassigned) [Example T109, 3-(3-chloro-4-(6-(1-methylcyclopropoxy)-9-((4-methylpyridin-2-yl)methyl)-9H-purin-8-yl)phenoxy)-2-fluoropropan-1-ol], the IC50 is 158 nM.

Turning to `Cc1ccnc(Cn2c(-c3ccc(OC(C)CO)cc3Cl)nc3c(OC4(C)CC4)ncnc32)c1` (single isomer, unassigned) [Example T127, 2-(3-chloro-4-(6-(1-methylcyclopropoxy)-9-((4-methylpyridin-2-yl)methyl)-9H-purin-8-yl)phenoxy)propan-1-ol], the IC50 was 251 nM.

On to `Cc1ccnc(Cn2c(-c3ccc(C4CCC(=O)N4)cc3Cl)nc3c(OC4(C)CC4)ncnc32)c1` (single isomer, unassigned) [Example T172, 5-(3-chloro-4-(6-(1-methylcyclopropoxy)-9-((4-methylpyridin-2-yl)methyl)-9H-purin-8-yl)phenyl)pyrrolidin-2-one], for which the IC50 was 398 nM.

Turning to `Cc1ccnc(Cn2c(-c3ccc(C4CNC(=O)C4)cc3Cl)nc3c(OC4(C)CC4)ncnc32)c1` (single isomer, unassigned) [Example T174, 4-(3-chloro-4-(6-(1-methylcyclopropoxy)-9-((4-methylpyridin-2-yl)methyl)-9H-purin-8-yl)phenyl)pyrrolidin-2-one], the IC50 is 501 nM.

Staying with this experiment, now noted: Homo sapiens, DLD-1, first proliferation column; DLD-1 BRCA2-/-; read-out: POLQ PD Prolif Lumin (converted).
Regarding `CC1(Oc2ncnc3c2nc(-c2ccc(OCCN4C[C@H]5CC[C@@H]4CN5)cc2Cl)n3Cc2ccccc2)CC1` (relative stereo) [Example T604, rel-(1R,4R)-2-(2-(4-(9-benzyl-6-(1-methylcyclopropoxy)-9H-purin-8-yl)-3-chlorophenoxy)ethyl)-2,5-diazabicyclo[2.2.2]octane], the IC50 is 251 nM.
